Results taken from patent US20120010229A1, “THERAPEUTIC REGIMENS FOR HEDGEHOG-ASSOCIATED CANCERS” (priority 2010, published 2012).

Assays:
[1] = in vivo, cited from earlier work
[2] = mouse, in vivo
Protocol: IPI-926 drug levels in tumor and brain samples were determined as described previously (Olive et al., (2009) Science 324: 1457-1461). Briefly, samples were homogenized in 4 volumes of CAN:PBS buffer and homogenized using a Geno/Grinder from SPEX CertiPrep (Metuchen, N.J.) for 2 minutes. Homogenates were then filtered using […] low binding hydrophilic multiscreen solvinert late (Millipore) and collected in a 96-well plate. The tissue filtrates were diluted 1:1 and IPI-926 levels were determined. Sample analysis was performed on an Agilent 1200 from Agilent Technologies (Santa Clara, Calif.) coupled with an API-4000 mass spectrometer from Applied Biosystems (Foster City, Calif.) for detection. Data were acquired and processed using the software Analyst 1.4.1 (Applied Biosystems). Sample concentrations, as measured by their peak area ratios (analyte divided by internal standard), were determined from the calibration curves.

L3.6pl xenografts = conditions: with paclitaxel bonded to albumin (Abraxane)
Phase 1 clinical trial = type: in vivo
[3] = test system: Hedgehog pathway in stromal cells; conditions: after single administration; cited from earlier work
[4] = test system: LX22 primary small cell lung tumor; experiment: LX22 primary small cell lung cancer xenograft, post etoposide/carboplatin; type: in vivo, mice
Protocol: FIG. 1 is a series of line graphs showing the effect in tumor size (mm^3) as a function of days of treatment of mice having an LX22 primary small cell lung tumor with IPI-926 alone (“IPI-926”), etoposide/carboplatin followed by vehicle control (“E/P→Vehicle”), E/P followed by IPI-926 (“E/P→IPI-926”) and vehicle control. Mice were treated for 5 weeks total with IPI-926 follow-up treatment at 40 mg/kg PO QD.
Briefly, LX22 primary small cell lung model was treated with 1.5 cycles of etoposide/carboplatin (E/P). Administration of IPI-926 was initiated 24 hours after the last dose of chemotherapy. In the normal course of these studies, IPI-926 was administered […].
The effect of delaying the onset of IPI-926 administration following chemotherapy was further characterized. […] FIG. 2 is a linear graph depicting the effect in tumor size as a function of time of chemotherapy treatment and following with IPI-926 treatment on day 5 (D5) and day 15 (D15) following chemotherapy treatment. Thus, a narrow window of intervention is necessary to maximize the beneficial effects of IPI-926 in tumor inhibition following chemotherapy.

[5] = test system: Smoothened bearing the A1 point mutation; experiment: Shh pathway inhibition in Smo/Smo (SmoA1) mouse medulloblastoma; type: in vivo
Source text: Two mouse medulloblastoma models were considered for these studies. In the Smo/Smo model, the constitutively active Smoothened (SmoA1) transgene is driven by a fragment of the mouse NeuroD2 promoter (Hallahan et al., (2004) Cancer Research 64: 7794-7800). Over 90% of Smo/Smo mice develop subclinical, localized medulloblastomas by one month of age and they typically become symptomatic and moribund 3-5 months later (Hatton et al., (2008) Cancer Research 68: 1768-1776). In this model, Smoothened is activated by a W539L point mutation (SmoA1) in the seventh transmembrane domain (Xie et al. (1998) Nature 391: 90-92; Taipale et al., (2000) Nature 406:1005-1009). While this model is ideal for many pre-clinical medulloblastoma therapeutic trials, it was previously reported that the introduced SmoA1 point mutation reduced the affinity of cyclopamine for Smoothened in tissue culture cells (Taipale et al., (2000) Nature 406:1005-1009). Tests were performed to determine whether doses of IPI-926 that were effective in other mouse model studies were sufficient to block the Shh pathway in Smo/Smo mouse tumors. […] Therefore, a different medulloblastoma model was used.

[6] = test system: Ptc^C/C medulloblastoma flank allografts; experiment: Ptc^C/C medulloblastoma flank allografts (tumor take and response); type: in vivo, mouse
Protocol: Animal experiments were performed in accordance with the NIH Guide for the Care and Use of Experimental Animals with approval from the Institutional Animal Care and Use Committee. Freshly excised medulloblastoma tumors from symptomatic Ptc^C/C mice were placed in cooled phosphate buffered saline (PBS), minced with a scalpel, and filtered through a 100 μm cell strainer (BD Bioscience, San Jose, Calif.). The cells were pelleted at 1000 rpm for 5 minutes at 4° C., and resuspended in equal parts DMEM and Matrigel (BD Biosciences, San Diego, Calif.). Recipient mice (wild type littermates) were anesthetized with isoflurane and a suspension of 1×10^6 cells in total volume of 200 μL was injected subcutaneously into the flank using a 30G needle. Tumor growth was measured in two dimensions using digital calipers every 24-48 hours, and the tumor volumes were calculated according to the following formula: 0.5×length×width^2, with width being the smaller of the two dimensions measured. Tumors greater than 2.5 cm in length were harvested and either snap-frozen or fixed in 10% formalin.
To confirm this, aliquots of 1 million cells from the cerebellar tumors of 9 donor Ptc^C/C mice were transplanted to the flanks of 110 recipients.
Recipient mice bearing drug-naïve and IPI-926 treated allograft tumors were then treated with daily IPI-926 (20 mg/kg) and tumor growth was monitored via caliper measurements. […] When tumor volumes reached […], recipient mice then received either daily IPI-926 (20 mg/kg) or vehicle treatment, and the growth of flank allografts was monitored over a nine-week period. […] Half of the allograft mice from drug-treated donors were taken off drug after five weeks of IPI-926 treatment, and the other half received continuous IPI-926 for the nine-week study period. Mice from both groups were monitored for the entire 9-week period.

CC1=C2C[C@H]3[C@@H](CC[C@@H]4C[C@H](NS(C)(=O)=O)CC[C@@]43C)[C@@H]2CC[C@@]2(C1)O[C@@H]1C[C@H](C)CN[C@H]1[C@H]2C [IPI-926]
oral bioavailability ([1]; po): orally bioavailable | duration of action [1]: long duration of action | plasma half-life [1]: long plasma half-life | blood brain barrier penetration [2]: crossed the blood brain barrier | effect on therapeutic agent effect of Abraxane (L3.6pl xenografts): enhances the therapeutic agent effect | clinical activity (Phase 1 clinical trial): demonstrated clinical activity | tolerability (Phase 1 clinical trial): well-tolerated | Hedgehog pathway inhibition in stromal cells [3]: rapid and sustained Hedgehog pathway inhibition | tumor re-growth following cyto-reductive chemotherapy ([4]; E/P then IPI-926 40 mg/kg PO QD, started 24 hours after last chemotherapy dose): inhibitory effect on the re-growth of tumors | tumor growth inhibition with delayed onset of administration ([4]; IPI-926 administration delayed by 5 or 14 days after chemotherapy): loss of the IPI-926 effect in tumor growth inhibition | expression of stromal marker murine Gli-1 ([4]; tumors after chemotherapy, vs vehicle-treated): inhibited | proliferation or apoptosis ([5]; Smo/Smo mouse model): no detectable effect | expression of Gli1 ([5]; Smo/Smo mouse tumors): unaffected | tumor re-growth on continuous IPI-926 ([6]; allografts from drug-treated donors, continuous IPI-926 for nine weeks): no tumors re-grew | tumors that re-grew after going off drug ([6]; allografts from drug-treated donors, off drug after five weeks, monitored 9 weeks): 1 of 6 | allograft tumors undetectable by caliper measurements ([6]; daily IP 20 mg/kg, both allograft groups (drug-naive and IPI-926 treated donors)): 100% | flank tumor take in recipients (tumor initiating capacity) ([6]; donors treated daily 20 mg/kg for 6 weeks before transplantation, drug-naive donors 40 of the 110, P=0.017): 9 of 51 | tumors that progressed while on therapy ([6]; flank allografts from drug-naive donors, 9-week trial): Forty percent
